Experimental findings from patent US12491220B2, “Compositions containing indole-derived metabolites and methods of use thereof” (Imvela Corp., priority 2024, dated 2025) are described below.

Assay [1] addresses T1, AhR (Homo sapiens, UniProt P35869).
T1 sequence (P35869 11-848): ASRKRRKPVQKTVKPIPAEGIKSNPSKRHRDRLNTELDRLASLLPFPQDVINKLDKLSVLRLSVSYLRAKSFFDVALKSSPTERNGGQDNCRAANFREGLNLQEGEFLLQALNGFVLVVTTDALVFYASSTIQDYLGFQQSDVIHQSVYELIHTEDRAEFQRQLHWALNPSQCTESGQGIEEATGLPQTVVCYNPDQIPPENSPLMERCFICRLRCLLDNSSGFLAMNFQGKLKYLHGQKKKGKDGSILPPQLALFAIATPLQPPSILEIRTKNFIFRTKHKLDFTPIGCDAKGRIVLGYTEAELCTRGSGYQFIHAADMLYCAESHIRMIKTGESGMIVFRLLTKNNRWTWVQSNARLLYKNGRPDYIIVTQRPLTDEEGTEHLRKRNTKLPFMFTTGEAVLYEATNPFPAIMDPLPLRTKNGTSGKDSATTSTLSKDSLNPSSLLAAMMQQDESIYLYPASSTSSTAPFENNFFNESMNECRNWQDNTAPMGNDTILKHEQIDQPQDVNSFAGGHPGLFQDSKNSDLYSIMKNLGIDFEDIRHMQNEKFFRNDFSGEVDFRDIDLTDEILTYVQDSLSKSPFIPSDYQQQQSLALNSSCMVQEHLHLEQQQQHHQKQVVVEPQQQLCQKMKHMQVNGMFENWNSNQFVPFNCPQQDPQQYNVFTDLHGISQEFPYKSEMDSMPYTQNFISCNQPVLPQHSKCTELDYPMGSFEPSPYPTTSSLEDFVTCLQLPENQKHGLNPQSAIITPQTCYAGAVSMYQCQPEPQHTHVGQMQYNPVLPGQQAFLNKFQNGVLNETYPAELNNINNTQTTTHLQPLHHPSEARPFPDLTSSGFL
Nature of the assay: AhR activation in human cell line expressing AhR, in vitro luminescence (Example 1). The assay is classed as cell-based. The settings on record: 200 PM, FIG. 5, normalized to methylcholanthrene. The method, then:
(§1) The utility of ILA and IAld in multiple host was validated by an in vitro assay. Human or canine cell lines expressing AhR were exposed to ILA or IAld at […], and AhR activation was assayed using in vitro luminescence.

For assay [2], the target named is T2, AhR (Canis lupus familiaris, UniProt A0A8I3RSX6).
T2 sequence (A0A8I3RSX6 1-853): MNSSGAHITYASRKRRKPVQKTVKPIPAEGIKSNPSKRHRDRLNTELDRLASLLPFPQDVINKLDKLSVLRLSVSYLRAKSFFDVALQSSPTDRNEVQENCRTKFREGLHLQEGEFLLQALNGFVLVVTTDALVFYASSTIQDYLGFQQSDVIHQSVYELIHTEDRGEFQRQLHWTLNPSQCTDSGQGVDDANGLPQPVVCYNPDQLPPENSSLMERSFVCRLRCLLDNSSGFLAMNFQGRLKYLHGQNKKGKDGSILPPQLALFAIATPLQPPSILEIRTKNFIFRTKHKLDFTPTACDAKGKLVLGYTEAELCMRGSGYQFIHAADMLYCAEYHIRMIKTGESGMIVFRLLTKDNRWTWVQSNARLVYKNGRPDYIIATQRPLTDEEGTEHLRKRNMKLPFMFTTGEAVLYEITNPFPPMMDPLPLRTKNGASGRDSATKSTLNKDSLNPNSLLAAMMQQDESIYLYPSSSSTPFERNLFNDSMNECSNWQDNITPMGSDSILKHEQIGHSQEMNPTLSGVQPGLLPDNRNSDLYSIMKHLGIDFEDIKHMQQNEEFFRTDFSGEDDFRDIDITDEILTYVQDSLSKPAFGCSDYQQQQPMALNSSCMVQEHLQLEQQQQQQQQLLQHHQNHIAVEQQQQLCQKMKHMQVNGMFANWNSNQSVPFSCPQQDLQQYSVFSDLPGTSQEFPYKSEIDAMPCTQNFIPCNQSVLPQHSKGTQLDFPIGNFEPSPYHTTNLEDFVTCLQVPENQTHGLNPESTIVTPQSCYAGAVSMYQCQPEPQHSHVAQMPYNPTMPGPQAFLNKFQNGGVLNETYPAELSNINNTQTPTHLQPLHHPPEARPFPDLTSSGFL
Nature of the assay: AhR activation in canine cell line expressing AhR, in vitro luminescence (Example 1). The settings on record: 200 PM, FIG. 5, normalized to methylcholanthrene. The format is cell-based. The method, then:
as §1

On to `O=Cc1c[nH]c2ccccc12` [IAld, indole-3-carboxaldehyde], for which the AhR activation entry in assay [1] and in assay [2] was “AhR activation was observed” in each case.
Turning to `O=C(O)C(O)Cc1c[nH]c2ccccc12` (stereo not shown) [ILA, indole-3-lactic acid], the AhR activation result in assay [1] and in assay [2] was “AhR activation was observed” each time.
